The values that follow come from ChEMBL document CHEMBL5055665, “Discovery of the Triazolo[1,5-a]Pyrimidine-Based Derivative WS-898 as a Highly Efficacious and Orally Bioavailable ABCB1 Inhibitor Capable of Overcoming Multidrug Resistance” (J Med Chem, 2021).

The subject of series [1] is SW-620. Briefly: Reversal of resistance to paclitaxel-induced cytotoxicity in human SW-620/AD300 cells assessed as reduction in paclitaxel IC50 at 10 uM preincubated for 4 hrs followed by paclitaxel addition and measured after 72 hrs by MTT assay (reference value: 4.23 +/- 0.50 uM). The format is functional, cell-based. In general terms: Tetrazolium dyes change colour on reduction, which living cells bring about.

Series [2] relates to SW-620. Briefly: Reversal of resistance to paclitaxel-induced cytotoxicity in human SW-620/AD300 cells assessed as reversal fold at 10 uM preincubated for 4 hrs followed by paclitaxel addition and measured after 72 hrs by MTT assay relative to paclitaxel. The settings on record: time 76 hrs. The format is functional.
For series [3], the system named is SW-620. In words: Reversal of resistance to paclitaxel-induced cytotoxicity in human SW-620/AD300 cells assessed as reversal fold at 4 uM preincubated for 4 hrs followed by paclitaxel addition and measured after 72 hrs by MTT assay relative to paclitaxel. The format is functional. The settings on record: time 76 hrs.
In series [4] the test system is SW-620. Briefly: cells. The settings on record: Homo sapiens.
The subject of series [5] is SW-620. Briefly: Reversal of resistance to paclitaxel-induced cytotoxicity in human SW-620/AD300 cells assessed as reduction in paclitaxel IC50 at 20 uM preincubated for 4 hrs followed by paclitaxel addition and measured after 72 hrs by MTT assay (reference value: 4.23 +/- 0.50 uM). The format is functional, cell-based.
Series [6] concerns SW-620. Briefly: Reversal of resistance to paclitaxel-induced cytotoxicity in human SW-620/AD300 cells assessed as reversal fold at 20 uM preincubated for 4 hrs followed by paclitaxel addition and measured after 72 hrs by MTT assay relative to paclitaxel. The class given is functional. The settings on record: time 76 hrs.
In another series the test system is KB 3-1. Briefly: Reversal of resistance to paclitaxel-induced cytotoxicity in human KB 3-1 cells assessed as reduction in paclitaxel IC50 at 4 uM preincubated for 4 hrs followed by paclitaxel addition and measured after 72 hrs by MTT assay (reference value: 4.54 +/- 1.59 nM). The format is functional, cell-based.
Series [7] relates to HEK293. Briefly: Reversal of resistance to paclitaxel-induced cytotoxicity in human HEK293/pcDNA3.1 cells assessed as reduction in paclitaxel IC50 at 4 uM preincubated for 4 hrs followed by paclitaxel addition and measured after 72 hrs by MTT assay (reference value: 1.93 +/- 0.06 nM). The class given is functional, cell-based.
The subject of series [8] is HEK293. Briefly: Reversal of resistance to paclitaxel-induced cytotoxicity in human HEK293/ABCB1 cells assessed as reduction in paclitaxel IC50 at 4 uM preincubated for 4 hrs followed by paclitaxel addition and measured after 72 hrs by MTT assay (reference value: 91.40 +/- 23.32 nM). The class given is functional, cell-based.
Series [9] has as its system SW-620. Briefly: cells. The settings on record: Homo sapiens. The source holds these as a separate data set.
The test system of the next series is KB-C2. In words: Reversal of resistance to paclitaxel-induced cytotoxicity in human KB-C2 cells assessed as reduction in paclitaxel IC50 at 4 uM preincubated for 4 hrs followed by paclitaxel addition and measured after 72 hrs by MTT assay (reference value: 1886.37 +/- 243.05 nM). The format is functional, cell-based.
Series [10] concerns SW-620. Briefly: Reversal of resistance to paclitaxel-induced cytotoxicity in human SW-620/AD300 cells assessed as reduction in paclitaxel IC50 at 6 uM preincubated for 4 hrs followed by paclitaxel addition and measured after 72 hrs by MTT assay (reference value: 4.23 +/- 0.50 uM). The class given is functional, cell-based.
Series [11] concerns SW-620. Briefly: Reversal of resistance to paclitaxel-induced cytotoxicity in human SW-620/AD300 cells assessed as reversal fold at 6 uM preincubated for 4 hrs followed by paclitaxel addition and measured after 72 hrs by MTT assay relative to paclitaxel. The format is functional. Particulars: time 76 hrs.
Series [12] concerns SW-620. In words: Reversal of resistance to paclitaxel-induced cytotoxicity in human SW-620/AD300 cells assessed as reduction in paclitaxel IC50 at 8 uM preincubated for 4 hrs followed by paclitaxel addition and measured after 72 hrs by MTT assay (reference value: 4.23 +/- 0.50 uM). The format is functional, cell-based.
Series [13] concerns SW-620. In words: Reversal of resistance to paclitaxel-induced cytotoxicity in human SW-620/AD300 cells assessed as reversal fold at 8 uM preincubated for 4 hrs followed by paclitaxel addition and measured after 72 hrs by MTT assay relative to paclitaxel. The format is functional. Particulars: time 76 hrs.
Series [14] relates to Mus musculus. Briefly: Toxicity in BALB/c mouse xenografted with human SW-620/AD300 cells assessed as mortality at 5 mg/kg, iv administered once every 3 days. The class given is organism-based. The settings on record: in vivo, 72 h, time 3 day. A general note: A xenograft is tissue or cells of one species grown in another, often human tumour cells in immunodeficient mice.

The test system of series [15] is Mus musculus. Briefly: Toxicity in BALB/c mouse xenografted with human SW-620/AD300 cells assessed as change in body weight at 5 mg/kg, iv administered once every 3 days. Particulars: in vivo, 72 h, time 3 day. The format is organism-based.
Series [16] deals with SW-620. In words: Antitumor activity against human SW-620/AD300 cells xenografted in BALB/c nude mouse assessed as tumor growth inhibition at 5 mg/kg, iv administered once ever 3 days for 21 days. The class given is functional. The arrangement: scale not given: the % may be the effect or the level left.

A word on the IC50: it is the midpoint of a concentration-inhibition curve.

On to `C=CCSc1nc2nc(C)cc(Nc3ccc(C(=O)/C=C/c4ccc5ccccc5c4)cc3)n2n1`, for which the concentration for half-maximal inhibition (IC50) in the series with SW-620 [1] stood at 920 nM. Besides, in the series on SW-620 [2], the “fold change (FC)” value was found to be 4.6.

As to `Cc1cc(Nc2ccc(C(=O)/C=C/c3ccc4ccccc4c3)cc2)n2nc(SCc3c(Cl)cccc3Cl)nc2n1`, the “fold change (FC)” value in the series on SW-620 [3] came to 6.13. In the series on SW-620 [4], this molecule returned an IC50 of 690 nM.

`Cc1cc(Nc2ccc(C(=O)/C=C/c3ccc4ccccc4c3)cc2)n2ncnc2n1`: the IC50 in the series on SW-620 [1] was 730 nM. Besides, the “fold change (FC)” value in the series with SW-620 [2] is given as 5.79.

Regarding `CC(=O)c1ccc(Nc2cc(C)nc3nc(SCc4nc5ccccc5[nH]4)nn23)cc1`, the half-maximal inhibitory concentration (IC50) with SW-620 [5] came out at 1630 nM. Moreover, the “fold change (FC)” value in the series with SW-620 [6] is listed as 2.6.

As for `COc1ccc(CCN(C)CCCC(C#N)(c2ccc(OC)c(OC)c2)C(C)C)cc1OC` (centres undefined), the IC50 in the series on KB 3-1 was found to be 3.84 nM; in the series on HEK293 [7], 1.62 nM; with HEK293 [8], 10400 nM; in the series on SW-620 [9] it was 7.11 nM; in the series on SW-620 [4], 300 nM; in the series on KB-C2, 7.05 nM.

For `Cc1cc(Nc2ccc(C(=O)/C=C/c3ccc4ccccc4c3)cc2)n2nc(SCc3ccc(C(F)(F)F)cc3)nc2n1`, the IC50 in the series on SW-620 [1] was found to be 1450 nM. The “fold change (FC)” value in the series on SW-620 [2] worked out at 2.92.

Regarding `Cc1cc(Nc2ccc(C(=O)/C=C/c3ccc4ccccc4c3)cc2)n2nc(SCCc3ccccc3)nc2n1`, in the series with SW-620 [10], the IC50 is 670 nM. Also, in the series with SW-620 [11], the “fold change (FC)” value is 6.31.

As to `C#CCSc1nc2nc(C)cc(Nc3ccc(C(=O)/C=C/c4ccc5ccccc5c4)cc3)n2n1`, in the series with SW-620 [3], the “fold change (FC)” value stood at 4.86. Besides, the IC50 in the series on SW-620 [4] turned out to be 870 nM.

On to `O=C(/C=C/c1ccc2ccccc2c1)c1ccc(Nc2c3c(nc4ncnn24)CCC3)cc1`, for which the IC50 with SW-620 [12] was found to be 1050 nM. In addition, the “fold change (FC)” value in the series with SW-620 [13] is 4.03.

As to `CC(=O)O[C@H]1C(=O)[C@@]2(C)[C@H]([C@H](OC(=O)c3ccccc3)[C@]3(O)C[C@H](OC(=O)[C@H](O)[C@@H](NC(=O)c4ccccc4)c4ccccc4)C(C)=C1C3(C)C)[C@]1(OC(C)=O)CO[C@@H]1C[C@@H]2O` [PACLITAXEL], the Activity entry in the series on Mus musculus [14] is given as “Non-Toxic”; in the series with Mus musculus [15], “Non-Toxic”; in the series with SW-620 [16], 32%.

On to `CCCSc1nc2nc(C)cc(Nc3ccc(C(=O)/C=C/c4ccc5ccccc5c4)cc3)n2n1`, for which the IC50 in the series with SW-620 [1] came to 1070 nM. Besides, the “fold change (FC)” value in the series with SW-620 [2] is given as 3.95.

Take `O=C(/C=C/c1ccc2ccccc2c1)c1ccc(Nc2cc(-c3ccccc3)nc3ncnn23)cc1`: the IC50 in the series on SW-620 [1] came out at 790 nM. In addition, the “fold change (FC)” value in the series with SW-620 [2] turned out to be 5.35.
